The subject of data set [1] is fixed U-2 OS human osteosarcoma cells. Description: Nuclear staining of fixed cells by fluorescence microscopy. It is filed as cell-based. The following applies: 20 μM, cells fixed with 4% paraformaldehyde. On the procedure:
Cell culture: Human osteosarcoma cells U-20S (ATCC HTB-96) cells (adherent) were cultured in McCoy's 5a medium supplemented with 10% foetal calf serum (FCS), 1 mM glutamine, and antibiotics and incubated at 37° C. in an atmosphere of 5% CO2 in air. For fluorescence imaging experiments, cells were grown at a density of 1×10^5 cells ml^−1 as a monolayer in coverglass bottomed chambers (Nunc, 2 Well Lab-Tek II, Fisher Scientific). Imaging: Following a 24 hour period cells were then fixed with 4% paraformaldehyde in PBS for 15-30 min at room temperature. No washing step is required. Compound (IA) was used in a manner appropriate to being the final staining procedure, after any treatment. Compound (IA) was added directly at 20 μM in to a 0.5 ml PBS overlay of the adherent cells. Cells were directly viewed using wide-field fluorescence microscopy. Chambers were placed onto an Axiovert 100 microscope (Carl Zeiss, Welwyn Garden City, UK and using a 40×, 1.3 NA oil immersion plan apochromat lens).fluorescence images (Ex: 620/60 nm; Em 700/75 nm) nm captured using an ORCA-ER CCD camera (Hamamatsu, Reading, UK) and MetaMorph (MDS, USA) acquisition software. […] The compound (IA) staining of nuclei were segmented using a simple threshold algorithm which depict the nuclei, and provide binary or mask information of each nucleus (object) localization. […]

The test system of data set [2] is DoHH2 cultures treated with VP-16. Kind of data set: Combination tracking of cell status with compound (IA) plus compound (IIA), flow cytometry. It counts as cell-based, human. To be noted: 20 μM compound (IIA) and 4 μM compound (IA), 10 minutes, VP-16 0.25 μM. On the procedure: Cell culture and drug treatment: A human follicular B-lymphoma cell line was used in this study. DoHH2 was routinely maintained in RPMI 1640 supplemented with 5% FCS and 100 U ml-1 penicillin, 100 μgml^−1 streptomycin, and 2 mM glutamine. The cells were passaged twice weekly at an initiating density of 5×10^4 cells ml^−1 cultured at 37° C. in a humidified atmosphere of 5% CO2/95% air. Cells were set at 5×10^5 cells/per ml and exposed to VP-16 doses (0.25 μM) to induce apoptosis. 20 μM Compound (IIA) and 4 μM compound (IA) were added to 1 ml of cells and incubated under standard culture conditions for 10 minutes. The samples were analysed by flow cytometry.
A FACS Vantage flow cytometer (as for example above) was used. Compound (IIA) and compound (IA) fluorescent signals derived from 488 nm excitation were detected in linear mode at FL2 for Compound (IIA) (585/42 nm filters); compound (IA) signal derived from 488 nm were detected in linear mode at FL3 with a 695LP filter and a FL1/2 560 nm SP dichroic SP to determine scatter properties. Signals for forward and side scatter and fluorescence were collected for 10,000 cells using the forward light scatter parameter as the master signal. Contour plots of side versus forward scatter depict two populations of cells. The addition of Compound (IIA) and compound (IA) provide functional status of these cultures. […]

The next data set concerns human Jurkat cells. Kind of data set: Multi-parameter JC-1 / compound (IA) analysis of staurosporine treated cells. It counts as cell-based. The following applies: 3 μM with JC-1, Jurkat cells, 1 μM staurosporine for 4 hours. The source says:
In this example, the dye JC-1 (5,5′,6,6′-tetrachloro-1,1′,3,3′-tetraethylbenzimidazol-carbocyanine iodide) is a lipophilic fluorescent cation that incorporates into the mitochondrial membrane, where it can form aggregates due to the physiological maintenance membrane potential of mitochondria. Aggregation modifies the fluorescence properties of JC-1 leading to a shift from green to orange fluorescence. Flow cytometry or imaging was used to monitor the decrease of the orange fluorescence and an increase of the green fluorescence allowing apoptotic cells to be distinguished from non-apoptotic cells.
Cell culture and drug treatment: A Jurkat cell line was used in this study Jurkat cultures was routinely maintained in RPMI 1640 supplemented with 10% FCS and 100 U ml-1 penicillin, 100 μg ml-1 streptomycin, and 2 mM glutamine. […] These were then analysed by flow cytometry or placed into a Nunc, 2 Well Lab-Tek II, (Fisher Scientific) and analysed by three channel confocal microscopy.
Multi-parameter flow cytometry of staurosporine treated cells A FACS Vantage flow cytometer (as for example above). […] JC-1 two parameter fluorescent signal were derived from 488 nm excitation were detected in logarithmic mode Green J-monomer was detected using FL1 (530/30 nm emission); Orange J-aggregate was detected using FL2 (585/42 nm emission). […]

Data set [3] has as its system live cells and dead cells. Description: Cell permeant/cell impermeant dye combination staining of live and dead cells. It is filed as cell-based. The following applies: for Dead cell stain / Live cell stain: combination staining pattern, predicted. Further details: key to Live cell stain / Dead cell stain: +: positive; −: negative. The source says:
It will be appreciated that this provides the opportunity to perform numerous advantageous two-colour, two-fluorochrome experiments. Moreover, the present inventors have realised that dye combinations of this type also provide a platform for performing a range of advantageous experiments using one or more further fluorochromes.
(§1) These possible detection systems and others will now be described in more detail with reference to FIGS. 1 to 9. […] Therefore, the Compound of Formula (IIA) fluorescence is generally in the orange portion of the visible spectrum, whereas compound (IA) fluorescence is generally in the far red portion of the visible spectrum. […] The compound of Formula (IIA) is a cell permeant dye, and therefore it would be expected that the fluorescence signature B would be in connection with live or dead cells. […] As might perhaps be expected, it is only the fluorescence signature B associated with the cell permeant dye which is observed. […] It might be expected that a significant contribution of the observed fluorescence would emanate from the compound of Formula (IIA) dye. […] Therefore, the compound (IA) dye appears to quench the compound of Formula (IIA) signal. […] However, other mechanisms may play a role. The upshot is that it is possible to provide a “traffic light” system to indicate the state of a cell, wherein fluorescence in one spectral region A is associated with dead cells, and fluorescence in another spectral region B is associated with live cells.

Data set [4] in a line: Spectral properties (absorbance and fluorescence spectra). It is filed as physicochemical. To be noted: for Em peak / Ex peak: FIG. 1, in general terms (diagrammatically).
Excerpt: as §1
Compound (IA) was synthesized using the principles described in Example 2 and stored at +4° C. as a stock solution of 5 mM compound (IA) dilution in buffer. Absorbance spectra were obtained using a spectrometer and a 20 μM solution of agent dissolved in PBS and measured in a 1 cm path quartz silica cuvette. Fluorescence spectra for a solution of 20 μM compound (IA) in a 1 cm path length semi-micro quartz cuvette were determined by excitation at 633, 589, 534, 488 nm. Fluorescence measurements were made on a Perkin Elmer LS50 spectrofluorometer with slit widths set at 10 nm. The spectrofluoremeter was equipped with a red-sensitive photomultiplier tube (Type R928; Hamamatsu Photonics KK, Japan. Data were accumulated and exported into a spread sheet to correct for the buffer control and to determine emission maxima. The results are shown in FIG. 8. Compound (IA) may be sub-optimally excited by wavelengths from 488 nm (in flow cytometry) and up to 647 nm (Exλmax 646 nm). Typically, for cell imaging, excitation is performed with either 633 nm or 647 nm wavelengths. Emission spectra are independent of excitation wavelength, ie, all the emission spectra are identical irrespective of excitation wavelength.

Take “1,5-Bis{[2-(trimethylamino)ethyl]amino}-5,8-dihydroxyanthracene-9,10-dione iodide [Compound (IA)]”: the “Nuclear localisation of dye” value in data set [1] was “localization of high levels of compound (IA) in the nucleus”. In addition, in data set [2], the Cell fraction identified entry was “identifies the non-intact cell fraction”. Also, the “Discrimination of early and late apoptosis sub-fractions” value in the data set on human Jurkat cells was “can depict these sub-fractions”. Besides, in data set [3], the Cell permeation property result is given as “cell impermeant”, the Dead cell stain entry is listed as “+” and the Live cell stain result is “−”. Further, in data set [4] (20 μM solution in PBS), the Exλmax worked out at 646 nm. In data set [4], the Em peak came to 660 nm and the Ex peak is listed as 620 nm.

Take `CN(C)CCNc1cccc2c1C(=O)c1cccc(NCCN(C)C)c1C2=O` [Compound (IIA), 1,5-Bis{[2-(dimethylamino)ethyl]amino}anthracene-9,10-dione]: the Cell fraction identified entry in data set [2] was “positive cells represent the live cell (viable) fraction”. Moreover, in data set [3], the Cell permeation property entry is reported as “cell permeant”, the Dead cell stain result was “−” and the Live cell stain entry is “+”. For the same compound, in data set [3] (in combination with compound (IA)), the “Fluorescence observed in dead cells” value is recorded as “little or no fluorescence”. Also, in data set [4], the Em peak is reported as 615 nm and the Ex peak is given as 518 nm.

The values are drawn from patent US9051467B2, “Method of analysing a cell or other biological material containing a nucleic acid” (BIOSTATUS LIMITED, priority 2010, dated 2015).
